This is an account of results in patent publication US11999715B2, “ASK1 inhibiting agents” (BIOGEN MA INC., priority 2018, dated 2024).

Some results are limits rather than exact numbers.

A word on the IC50: it is the concentration needed to halve the response being measured.

In data set [1] the target is T1, ASK1 T838 auto phosphorylation (Homo sapiens, UniProt Q99683).
T1 sequence (Q99683 1-1374): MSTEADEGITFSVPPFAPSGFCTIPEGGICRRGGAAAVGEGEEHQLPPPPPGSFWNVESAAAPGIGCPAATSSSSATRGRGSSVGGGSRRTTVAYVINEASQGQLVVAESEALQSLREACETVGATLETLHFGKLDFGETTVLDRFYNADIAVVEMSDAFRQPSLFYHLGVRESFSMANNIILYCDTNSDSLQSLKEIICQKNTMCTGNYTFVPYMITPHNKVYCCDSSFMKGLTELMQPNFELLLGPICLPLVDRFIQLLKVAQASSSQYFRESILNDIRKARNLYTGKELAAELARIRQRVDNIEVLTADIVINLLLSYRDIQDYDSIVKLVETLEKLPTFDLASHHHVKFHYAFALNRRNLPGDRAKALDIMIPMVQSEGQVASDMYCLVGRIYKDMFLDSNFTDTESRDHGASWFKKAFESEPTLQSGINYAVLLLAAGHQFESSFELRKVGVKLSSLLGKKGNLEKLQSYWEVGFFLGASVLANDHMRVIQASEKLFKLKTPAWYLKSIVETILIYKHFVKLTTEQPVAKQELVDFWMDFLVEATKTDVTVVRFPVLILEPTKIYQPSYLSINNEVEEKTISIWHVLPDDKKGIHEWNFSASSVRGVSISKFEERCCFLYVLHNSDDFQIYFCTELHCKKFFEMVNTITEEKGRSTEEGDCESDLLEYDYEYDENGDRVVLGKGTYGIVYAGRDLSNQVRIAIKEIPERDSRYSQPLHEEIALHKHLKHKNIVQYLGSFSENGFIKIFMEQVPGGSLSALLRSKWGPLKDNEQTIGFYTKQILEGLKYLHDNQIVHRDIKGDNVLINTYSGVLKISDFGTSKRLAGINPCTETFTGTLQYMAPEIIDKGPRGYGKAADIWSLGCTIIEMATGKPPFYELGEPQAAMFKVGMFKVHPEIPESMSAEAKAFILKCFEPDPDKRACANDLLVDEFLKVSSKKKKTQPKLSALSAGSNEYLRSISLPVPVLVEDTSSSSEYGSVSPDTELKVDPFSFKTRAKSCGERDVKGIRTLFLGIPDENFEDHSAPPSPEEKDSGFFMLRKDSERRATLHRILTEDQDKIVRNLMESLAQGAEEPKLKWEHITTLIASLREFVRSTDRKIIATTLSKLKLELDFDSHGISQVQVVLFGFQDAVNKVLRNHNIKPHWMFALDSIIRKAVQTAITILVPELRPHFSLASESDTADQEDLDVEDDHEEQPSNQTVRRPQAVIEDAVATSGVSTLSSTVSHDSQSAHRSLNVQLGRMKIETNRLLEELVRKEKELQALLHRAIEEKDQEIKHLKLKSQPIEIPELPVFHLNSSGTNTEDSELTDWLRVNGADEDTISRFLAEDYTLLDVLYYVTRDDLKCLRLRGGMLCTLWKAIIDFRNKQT
The experiment in a line: ASK1 (AUTO PHOS T838) assay, MSD format, in HEK-293T cells transfected with ASK1-V5. The conditions noted are these: ASK1 T838 auto phosphorylation in HEK-293T cells, 1 hr compound incubation; class symbols. The class given is cell-based. The gist of the method:
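HEK-293T cells transiently transfected with full-length ASK1-V5 plasmid were replated, then treated 1 h at 37 °C with a 10-point, 3-fold series from 20 μM. Lysates were probed by MSD with anti-pASK1 T838 and a sulfo-tag secondary, read by chemiluminescence. IC50 came from a 4-parameter fit of normalized % activity.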

The target in a further data set is T2, ASK1/MAP3K5 (Homo sapiens, UniProt Q99683).
T2 sequence (Q99683 1-1374): T1 sequence (Q99683 1-1374)
In words: ASK1/MAP3K5 kinase assay by Reaction Biology Corp. (headed ASK1 TR-FRET Assay). The settings on record: 20 μM myelin basic protein, 10 μM ATP, class symbols. The class given is biochemical. An outline of the steps:
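Radiometric filter-binding assay with ASK1/MAP3K5, 20 μM MBP substrate and 10 μM ATP plus ^33P-ATP in HEPES pH 7.5 buffer with 1% DMSO. Compounds were preincubated with kinase 20 min, and the reaction then ran 2 hours at room temperature.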

Data set [2] in a line: In vivo brain penetration, rat Kpuu study. The settings on record: brain and plasma (unbound concentrations), IV infusion for four hours (1 mg/kg) to steady state, Kpuu=Cu,b/Cu,p.
Description: Example 113: In Vivo Brain Penetration To evaluate the CNS penetration of the compounds described herein, several compounds were selected for in vivo rat Kpuu studies. In these experiments the compounds are administered via an IV infusion (using N,N-dimethylacetamide:ethanol:1,2-propylene glycol:water in a 1:1:3:5 ratio as the vehicle) in the carotid artery for a period of four hours (1 mg/kg, 0.1 mg/mL) to reach steady state. After this time the plasma and brain concentration levels are quantified, and the values are adjusted by the measured protein binding in plasma and brain homogenate to calculate the Kpuu (see Di, […] . Blood-Brain Barrier in Drug Discovery (Wiley)) according to the equation below. Kpuu=Cu,b/Cu,p Wherein: • Cu,b=Unbound concentration in brain (C×fu,b). (C=concentration at steady state; fu,b=fraction unbound in brain) • And in which: Cu,p=Unbound concentration in plasma (C×fu,p). (C=concentration at steady state; fu,p=fraction unbound in plasma) Plasma and brain protein binding values were generated via the Rapid Equilibrium Dialysis method. The compound of interest was incubated in K2EDTA plasma and brain homogenate (homogenized 1:7 (w:v) in 1×PBS) purchased from BioIVT (Westbury, NY), opposite a buffered compartment of 100 mM Potassium phosphate/150 mM Sodium chloride, pH 7.4, at 1 μM for 4 hr and 6 hr respectively. At the conclusion of incubation samples were taken from both matrix and buffered compartments, matrix-matched using blank buffer and matrix, extracted with acetonitrile, diluted with water, and analyzed utilizing an Agilent RapidFire 365 high-throughput LC coupled with MS/MS detection via an AB Sciex 5500. Free fractions (fu) were then calculated by comparing internal standard/analyte peak-area ratios of matrix and buffered compartments. […] Total drug concentration in plasma and brain tissue was measured via well-established bioanalytical extraction (protein precipitation) and detection methods (LC-MS/MS).

`C=CCn1cc(C(=O)Nc2cccc(-c3nncn3C(C)C(F)(F)F)n2)c(OC)n1` (stereo not drawn) [Example 56, 1-Allyl-3-methoxy-N-(6-(4-(1,1,1-trifluoropropan-2-yl)-4H-1,2,4-triazol-3-yl)pyridin-2-yl)-1H-pyrazole-4-carboxamide]: the IC50 in data set [1] was not above 1000 nM; against ASK1/MAP3K5, not above 100 nM. Further, in data set [2], the Kp uu at 4 h is 0.33.

Take `COc1nn(-c2ncccc2C)cc1C(=O)Nc1cccc(-c2nncn2C(C)C)n1` [Example 62, N-(6-(4-Isopropyl-4H-1,2,4-triazol-3-yl)pyridin-2-yl)-3-methoxy-1-(3-methylpyridin-2-yl)-1H-pyrazole-4-carboxamide]: the IC50 was not above 1000 nM in data set [1] and not above 100 nM on ASK1/MAP3K5. In data set [2], this compound yielded a Kp uu at 4 h of 0.16.
